In patent US4034082A, “Method to prevent reproduction in warm-blooded female animals with nonapeptides” (Abbott Laboratories, priority 1976, dated 1977):

Tests used:
[1] = system: Adult, female rats, mated; test: Prevention of implantation/pregnancy in mated rats (Example 2); format: in vivo, rat; conditions: 10 μg s.c. b.i.d., day 3 to day 6 of gestation; for fate of the implantation sites: sacrificed day 13; for animals having implantation sites: sacrificed day 13, group of 9 (control: 8 of 9 pregnant); for total implantation sites found in the uteri of the group: sacrificed day 13, groups of 8 or 9 (control: 87 implantation and 3 resorbed sites)
Procedure: Adult, female rats weighing an average of 200 g. were mated and then randomly divided into groups of 8 and 9 rats. In all animals, mating was determined by the presence of sperms in the vaginal opening. In all animals, subcutaneous treatment was started on day 3 of gestation and continued until day 6 with 10 μg of the above compound, b.i.d. in an aqueous vehicle containing 0.1% bovine serum albumin and 0.9% sodium chloride at a concentration of 0.02% (wt./vol.). All animals were sacrificed on day 13 and checked for toxic manifestations, fetuses or viable implants.
In the first of four groups (control), the animals received the above vehicle only. […] Upon sacrifice, a total of 87 implantation and 3 resorbed sites was found in the uteri.

Pregnant rabbits = test: Fetal viability in pregnant rabbits after a single injection (Example 4); format: in vivo, rabbit; conditions: single s.c. injection of 12.5 μg/kg on day 14 of gestation, sacrificed day 28 (control: 7 of 8 implants viable)
Procedure: Pregnant rabbits were given single subcutaneous injections of 12.5 μg/kg of the compounds used in Example 2 by the route and vehicle shown there on day 14 of gestation. […] In all instances, the animals were sacrificed on day 28 of gestation.

rats = test: Reversal of the anti-implantation effect by exogenous estradiol in treated rats; format: in vivo, rat; conditions: rats treated days 2-6 of gestation, estradiol 0.1 μg s.c. in sesame oil on days 4 and 5; for animals in which implantation takes place when estradiol is co-administered: of 8 animals

Row | Compound | fate of the implantation sites [1] | animals showing no signs of implantation ([1]; sacrificed day 13, group of 9) | animals having implantation sites [1] | total implantation sites found in the uteri of the group [1] | viable fetuses per implants (average) (Pregnant rabbits) | viability of embryos when estradiol is co-administered (rats) | animals in which implantation takes place when estradiol is co-administered (rats)
1 | CCNC(=O)[C@@H]1CCCN1C(=O)[C@H](CCCNC(=N)N)NC(=O)[C@H](CC(C)C)NC(=O)[C@@H](Cc1c[nH]c2ccccc12)NC(=O)[C@H](Cc1ccc(O)cc1)NC(=O)[C@H](CO)NC(=O)[C@H](Cc1c[nH]c2ccccc12)NC(=O)[C@H](Cc1c[nH]cn1)NC(=O)[C@@H]1CCC(=O)N1 [Compound A] | all resorbed | Seven | two | 25 | one viable fetus per 7 implants | substantially only viable embryos | 3
2 | CCNC(=O)[C@@H]1CCCN1C(=O)[C@H](CCCNC(=N)N)NC(=O)[C@H](CC(C)C)NC(=O)[C@@H](Cc1ccc(O)cc1)NC(=O)[C@H](Cc1ccc(O)cc1)NC(=O)[C@H](CO)NC(=O)[C@H](Cc1c[nH]c2ccccc12)NC(=O)[C@H](Cc1c[nH]cn1)NC(=O)[C@@H]1CCC(=O)N1 [Compound B] | all 22 counted sites had been resorbed |  | 2 | 22 | one viable fetus per 7 implants | substantially only viable embryos | 3
3 | CCNC(=O)[C@@H]1CCCN1C(=O)[C@H](CCCNC(=N)N)NC(=O)[C@H](CC(C)C)NC(=O)[C@@H](Cc1ccccc1)NC(=O)[C@H](Cc1ccc(O)cc1)NC(=O)[C@H](CO)NC(=O)[C@H](Cc1c[nH]c2ccccc12)NC(=O)[C@H](Cc1c[nH]cn1)NC(=O)[C@@H]1CCC(=O)N1 [Compound C] | resorbed |  |  | single | one viable fetus per 7 implants | substantially only viable embryos | 3
